Data reported in patent US4008329A, “Substituted cyclohexanes, pharmaceutical compositions containing them and method of treatment involving their use” (priority 1974, dated 1977).
Read-outs that look alike come from different tables or passages of the source.

Tests used:
[1] = tested on: depletion of serotonin (5HT) induced by H75/12; assay: Test using H75/12: inhibition of serotonin depletion; assay type: in vivo; conditions: Mus musculus, ip, 30 min before H75/12, mice, read-out: Percentage of inhibition of depletion on 5 HT; for inhibition at 40 mg/kg: 40 mg/kg I.P.; for inhibition at 20 mg/kg: 20 mg/kg I.P.; for inhibition at 10 mg/kg: 10 mg/kg I.P.; for inhibition at 30 mg/kg: 30 mg/kg I.P.
Experimental: In the experiments carried out, the H 75/12 was administered on two occasions with an interval of two hours between them, in a proportion of 100mg/kg by intraperitoneal method.
In Table I hereafter, the first figure represents the first dose in mg/kg by intraperitoneal method, of the product according to the invention, administered thirty minutes before the injection of H75/12, and the second figure represents the percentage of inhibition of the depletion of serotonin in relation to a reference batch which has received only H75/12. The compounds signified by Compound Nos. 1-14 in Table 1 are indicated hereafter in Table II.

[2] = tested on: hypotension (H), tachycardia (T), and positive inotropism (I^+) induced by isoprenaline; assay: Cardiovascular parameters: modification of isoprenaline-induced hypotension, tachycardia and positive inotropism; assay type: in vivo, chloralised dogs; conditions: Canis lupus familiaris
Experimental: Experiments were carried out on chloralised dogs: these consisted of measuring, as a percentage relative to the […] of reference animals, the modifications caused by the products of the invention, administered in a proportion of 5mg/kg by intravenous route, on hypotension (H), tachycardia (T), and positive inotropism (I^+) induced by isoprenaline previously administered in a proportion of 0.5μg/kg by intravenous route.

mice = assay: Supramaximal electrical shock test (corneal electrodes); assay type: in vivo; conditions: Mus musculus, po, P.O., dose which protects 50% of the animals from tonic tension, read-out: ED 50 ELECTROSHOCK
[3] = LD50 oral, acute toxicity; conditions: mouse, in vivo; oral administration; mice
[4] = 5 mg/kg intravenous, isoprenaline 0.5 μg/kg intravenous, chloralised dogs, read-out: Cardiovascular parameters, H (hypotension)
[5] = 5 mg/kg intravenous, isoprenaline 0.5 μg/kg intravenous, chloralised dogs, read-out: Cardiovascular parameters, I^+ (positive inotropism)
[6] = 5 mg/kg intravenous, isoprenaline 0.5 μg/kg intravenous, chloralised dogs, read-out: Cardiovascular parameters, T (tachycardia)

Row | SMILES | inhibition at 40 mg/kg [1] [%] | change in vivo at 5 mg/kg [2, 4] [%] | change in vivo at 5 mg/kg [2, 5] [%] | change in vivo at 5 mg/kg [2, 6] [%] | inhibition at 20 mg/kg [1] [%] | ED50 (mice) [mg/kg] | inhibition at 10 mg/kg [1] [%] | LD50 [3] [mg/kg] | inhibition at 30 mg/kg [1] [%] | change in vivo at 5 mg/kg ([2]; iv, read-out: Cardiovascular parameters, H (hypotension)) [%] | change in vivo at 5 mg/kg ([2]; iv, read-out: Cardiovascular parameters, I^+ (positive inotropism)) [%] | change in vivo at 5 mg/kg ([2]; iv, read-out: Cardiovascular parameters, T (tachycardia)) [%]
1 | NC1CCCC(Oc2ccc(Cl)cc2)C1O (stereo not shown) [compound 13] | 62 | 0 | 0 | 0 | – | – | – | – | – | – | – | –
2 | CN(C)C1CCCC(Oc2ccc(Cl)cc2)C1O (stereo not shown) [compound 14] | 38 | 0 | 0 | 0 | – | – | – | – | – | – | – | –
3 | CC(Cc1ccccc1)NC1CCCC(Oc2ccc(F)cc2)C1O (stereo not shown) [compound 12] | – | 35 | 0 | -35 | 120 | < 50 | – | – | – | – | – | –
4 | CC(C)CNC1CCCC(Oc2ccc(Cl)cc2)C1O (stereo not shown) [compound 3] | – | 0 | 0 | 0 | – | 100 | 30 | – | – | – | – | –
5 | CC(C)NC1CCCC(Oc2cccc(Cl)c2)C1O (stereo not shown) [Compound No. 1, 2-hydroxy-3-(3'-chloro-phenoxy)-N-isopropyl-cyclohexylamine] | 99 | 0 | 0 | 0 | – | 100 | – | 588 | – | – | – | –
6 | CCCCNC1CCCC(Oc2cccc(Cl)c2)C1O (stereo not shown) [compound 10] | – | 0 | 0 | 0 | – | 80 | – | – | 92 | – | – | –
7 | CC(C)NC1CCCC(Oc2ccc(F)cc2)C1O (stereo not shown) [compound 8] | 59 | 0 | -27 | -10 | – | 200 | – | – | – | – | – | –
8 | CC(C)CCNC1CCCC(Oc2ccc(Cl)cc2)C1O (stereo not shown) [compound 4] | – | 0 | 0 | 0 | – | 25 | 59 | – | – | – | – | –
9 | CN(C)C1CCCC(Oc2ccc(F)cc2)C1O (stereo not shown) [compound 9] | – | 30 | 25 | 9 | 18 | 250 | – | – | – | – | – | –
10 | CC(C)NC1CCCC(Oc2ccccc2)C1O (stereo not shown) [compound 5] | 26 | 0 | 25 | -39 | – | – | – | – | – | – | – | –
11 | CC(C)NC1CCCC(Oc2ccc(Cl)cc2)C1O (stereo not shown) [compound 2] | 42 | 30 | -15 | -20 | – | 300 | – | – | – | – | – | –
12 | CC(C)NC1CCCC(Oc2cccc(C(F)(F)F)c2)C1O (stereo not shown) [compound 6] | 74 | -18 | 0 | -20 | – | < 100 | – | – | – | – | – | –
13 | CC(C)NCC(O)COc1cccc2ccccc12 (stereo not shown) [PROPRANOLOL, propranolol, reference compound] | – | – | – | – | – | – | – | – | – | -100 | -98 | -92
14 | CC(C)CCNC1CCCC(Oc2cccc(C(F)(F)F)c2)C1O (stereo not shown) [compound 7] | – | -50 | -38 | -50 | – | 30 | – | – | 93 | – | – | –
15 | CC(Cc1ccccc1)NC1CCCC(Oc2ccccc2)C1O (stereo not shown) [compound 11] | 118 | 0 | -10 | -60 | – | – | – | – | – | – | – | –
